From patent US20170066717A1, “NEW PHENYLAZETIDINECARBOXYLATE OR -CARBOXAMIDE COMPOUNDS” (INVENTIVA, priority 2014, published 2017)

Legend:
[1] = biological target: T1, NURR-1/RXRγ (Homo sapiens, UniProt P48443); assay: Transactivation test, NURR-1-Gal4/RXRγ, luciferase reporter in Cos-7 cells; type: cell-based; conditions: for Emax: COS-7, induction level relative to reference XCT0135908 at 2×10^−5 M (=100%), read-out: hNurr1_RXRgFL Emax (%); for EC50: Cos-7 cells, NURR-1-Gal4/RXRγ, luciferase reporter, read-out: hNurr1_RXRgFL EC50
T1 construct: expressed in transfected cells; host or cells: Cos-7 cells

[2] = Plasma pharmacokinetics in mice after oral administration; type: in vivo; conditions: mouse, male C57/Bl6 mice, oral 10 mg/kg; for AUC: sampling 15 min to 7 h, log-linear trapezoidal method, read-out: AUCplasma; for Cmax: suspension in 1% methylcellulose/0.1% Poloxamer 188
Experimental: (§1) Three series of in vivo tests were carried out with compounds representative of the invention, for the purpose of determining their pharmacokinetic plasma profile and their brain penetration.
1. Study of the Plasma Phannacokinectis in Mice After Oral Administration
Male C57/B16 mice (25-30 g) originating from the establishment Janvier, Le Genest-St-Isle, France were used for this study (9 mice per dose). The animals were fed with standard feed for rodents (Purina Mills, St. Louis, Mo.), placed in cages and subjected to light/darkness cycles of 12 h/12 h, the temperature of the room being maintained at 22±2° C. and the humidity level at 55±10%.
The mice were not deprived food before the administration. Water was provided at will throughout the study. The test compound was admistered orally at 10 mg/kg. For the oral administration at 10 mg/kg, the animals were green, by gavage, 10 mL/kg of a suspension of the test compound, prepared in 1% methylcellulose, 400 cps/0.1% Poloxamer 188/water.
The animals were sacrificed under anesthesia at times 15 min, 30 min, 1 h, 3 h and 7 h after gavage. The blood was collected at each time, and from each animal sacrificed 0.5 mL of blood collected in 1.5 mL tubes containing 20 μL of evaporated anticoagulant (solution of sodium heparinate at 1000 IU/mL) was centrifuged at 4500 g for 3 min in order to obtain approximately 200 μL of plasma. The plasma was divided up into 2 aliquots of 70 μL minimum, which were stoted at −20° C. until they were treated by protein precipitation and then analysis by liquid chromatography coupled to tandem mass spectrometry (LC-MS/MS) in order to quantify the compound tested.
The pharmacokinetic plasma parameters in the mice after oral administration were determined using a non-compartmental approach with the Phoenix WinNonLin software. The area under the curve (AUC0-1) was determined bv the log-linear trapezoidal method. The tesults are brought together in the following table.

[3] = biological target: T2, NURR-1/RXRα (Homo sapiens, UniProt P19793); assay: Transactivation test, NURR-1-Gal4/RXRα, luciferase reporter in Cos-7 cells; type: cell-based; conditions: for Emax: COS-7, induction level relative to reference XCT0135908 at 2×10^−5 M (=100%), read-out: hNurr1_RXRaFL Emax (%); for EC50: Cos-7 cells, NURR-1-Gal4/RXRα, luciferase reporter, read-out: hNurr1_RXRaFL EC50
T2 construct: expressed in transfected cells; host or cells: Cos-7 cells

[4] = Brain penetration in rats after intravenous administration; type: in vivo; conditions: rat; for Kp at 4 h: male, Wistar, intravenous, 4 mg/kg, ratio of Cmax brain to Cmax plasma after the 4 hours of infusion, rats, read-out: Kp (partition coefficient between the brain and the plasma); for Cmax at 4 h: male Wistar rats, 4 mg/kg iv infusion into the jugular vein for 4 hours, plasma at end of infusion
Experimental: as §1
2. Study of the Brain Penetration in Rats After Intravenous Administration
Male Wistar rats (250-300 g) originating from the establishment Janvier, Le Genest-St-Isle, France were used for this study (4 rats per study). The animals were fed with standard feed for rodents (Purina Mills, St. Louis, Mo.), placed in cages and subjected to light/darkness cycles of 12 h/12 h, the room temperature being maintained at 22±2° C. and the humidity level at 55±10%. The rats were not deprived food before the administration. Water was provided at will throughout the study.
The test compound was administered intravenously at 4 mg/kg by infusion into the jugular vein for 4 hours. For the intravenous administration, the animals were infused with 12 mL/kg of a solution of the test compound, prepared in 2% Cremophor EL/0.9% NaCl.
The animals were sacrificed under anesthesia after 4 hours of infusion. The blood and the brain were collected from each sacrificed animal 0.5 mL of blood collected in 1.5 mL tubes containing 20 μL of evaporated anticoagulant (solution of sodium heparinate at 1000 IU/mL) was centrifuged at 4500 g for 3 min in order to obtain approximately 200 μL of plasma. The plasma was divided up into 2 aliquots of 70 μL minimum, which were stored at −20° C. until they were treated by protein precipitation and then analysis by liquid chromatography coupled to tandem mass spectrometry (LC-MS/MS) in order to quantify the compound tested.
The brains were immersed in liquid nitrogen directly after they were removed, then stored at −20° C. for analysis. The brains were then ground in the presence of an aqueous/organic solvent mixture in order to obtain a homogenate. These homogenates were then centrifuged and the compound tested was extracted from the supernatant obtained, by liquid-liquid extraction, and then quantified by LC-MS/MS.
The brain penetration in the rats is represented by the Kp, which is the partition coefficient between the brain and the plasma. It is calculated by the ratio of the concentration measured in the brain (Cmax brain) and the plasma (Cmax plasma) after the 4 hours of infusion.

[5] = induction level relative to reference XCT0135908 at 2×10^−5 M (=100%)

T2 sequence (P19793 whole entry, the tested form may be a part): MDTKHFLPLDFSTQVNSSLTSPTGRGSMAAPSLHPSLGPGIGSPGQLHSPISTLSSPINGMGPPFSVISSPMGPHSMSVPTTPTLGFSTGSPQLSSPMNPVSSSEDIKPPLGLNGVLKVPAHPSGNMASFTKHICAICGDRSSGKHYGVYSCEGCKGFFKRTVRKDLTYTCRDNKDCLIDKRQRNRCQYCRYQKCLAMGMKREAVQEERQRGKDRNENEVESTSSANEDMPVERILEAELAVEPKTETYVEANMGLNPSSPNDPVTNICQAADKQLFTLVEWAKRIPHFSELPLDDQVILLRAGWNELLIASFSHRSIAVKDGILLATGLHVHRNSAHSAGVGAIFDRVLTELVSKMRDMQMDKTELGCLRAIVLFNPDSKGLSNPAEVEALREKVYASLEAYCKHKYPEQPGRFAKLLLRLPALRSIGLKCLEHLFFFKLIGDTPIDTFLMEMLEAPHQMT
T2 sequence (P43354 whole entry partner, the tested form may be a part): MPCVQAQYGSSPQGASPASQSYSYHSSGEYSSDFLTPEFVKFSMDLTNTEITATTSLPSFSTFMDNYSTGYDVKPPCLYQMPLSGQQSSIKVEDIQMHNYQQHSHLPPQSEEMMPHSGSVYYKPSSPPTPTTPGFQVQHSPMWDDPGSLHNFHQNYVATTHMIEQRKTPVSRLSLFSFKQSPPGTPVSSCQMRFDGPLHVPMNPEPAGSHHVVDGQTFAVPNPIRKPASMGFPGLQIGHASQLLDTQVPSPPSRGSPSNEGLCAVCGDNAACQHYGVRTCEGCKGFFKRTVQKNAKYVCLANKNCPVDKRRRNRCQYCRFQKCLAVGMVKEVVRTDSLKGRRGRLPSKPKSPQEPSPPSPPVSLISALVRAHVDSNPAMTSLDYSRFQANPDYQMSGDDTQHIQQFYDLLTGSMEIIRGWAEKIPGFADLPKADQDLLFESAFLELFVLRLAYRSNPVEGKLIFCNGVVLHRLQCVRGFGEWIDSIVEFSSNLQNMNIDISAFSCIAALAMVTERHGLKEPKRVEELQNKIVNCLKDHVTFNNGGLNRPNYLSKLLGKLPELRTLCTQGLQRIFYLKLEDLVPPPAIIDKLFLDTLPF
T2 sequence (P04386 1-147 partner limits assumed): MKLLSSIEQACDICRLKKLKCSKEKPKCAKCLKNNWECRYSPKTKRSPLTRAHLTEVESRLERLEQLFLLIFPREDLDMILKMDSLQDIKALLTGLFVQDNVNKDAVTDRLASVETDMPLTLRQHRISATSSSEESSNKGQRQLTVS
T1 sequence (P48443 whole entry, the tested form may be a part): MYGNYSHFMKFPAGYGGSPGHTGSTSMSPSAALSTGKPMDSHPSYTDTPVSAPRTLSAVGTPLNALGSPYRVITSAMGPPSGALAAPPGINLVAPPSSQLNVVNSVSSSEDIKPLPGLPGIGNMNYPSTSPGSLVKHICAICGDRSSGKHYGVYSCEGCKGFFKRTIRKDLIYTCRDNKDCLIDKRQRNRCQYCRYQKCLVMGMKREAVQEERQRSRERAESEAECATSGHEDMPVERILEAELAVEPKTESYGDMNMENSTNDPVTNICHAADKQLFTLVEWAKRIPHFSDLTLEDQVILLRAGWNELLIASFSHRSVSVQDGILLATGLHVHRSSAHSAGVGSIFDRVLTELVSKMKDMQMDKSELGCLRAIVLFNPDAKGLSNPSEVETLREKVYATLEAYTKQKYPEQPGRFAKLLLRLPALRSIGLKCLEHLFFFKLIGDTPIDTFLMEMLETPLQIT
T1 sequence (P43354 whole entry partner, the tested form may be a part): as the sequence (P43354 whole entry partner, the tested form may be a part) above
T1 sequence (P04386 1-147 partner limits assumed): as the sequence (P04386 1-147 partner limits assumed) above

Structure (SMILES) | Emax [1] [%] | EC50 [1] [µM] | AUC [2] [µg·h/mL] | Cmax [2] [µg/mL] | Emax [3] [%] | EC50 [3] [µM] | Kp at 4 h [4] | Cmax at 4 h [4] [µg/mL] | melting point [°C] | hNurr1_RXRgFL Emax (%) [1, 5] [%] | hNurr1_RXRaFL Emax (%) [3, 5] [%]
CC(C)c1cc2c(c(-c3cccc(N4CC(C(=O)O)C4)c3)c1)NCCC2 [Example 199, 1-[3-(6-isopropyl-1,2,3,4-tetrahydroquinolin-8-yl)phenyl]azetidine-3-carboxylic acid] | 117 | 0.095 | 19 | 17.5 | 103 | 0.024 | 0.28 | 4.92 | 77 to 79 |  | 
CC1(C)CN(c2cccc(N3CC(C(=O)[O-])C3)c2)c2ccc(C(C)(C)C)cc2O1.[Na+] [Example 225, sodium 1-[3-(7-tert-butyl-2,2-dimethyl-3-H-1,4-benzoxazin-4-yl)phenyl]azetidine-3-carboxylate] | 122 | 0.173 | 13.7 | 6.43 | 113 | 0.079 | 0.42 | 3.26 | 223 to 227 |  | 
CC(C)CC1Oc2cc(C(F)(F)F)ccc2N(c2cccc(N3CC(C(=O)O)C3)c2)C1=O (single isomer, unassigned; isomer 1) [Example 246-1, 1-[3-[2-isobutyl-3-oxo-7-(trifluoromethyl)-1,4-benzoxazin-4-yl]phenyl]azetidine-3-carboxylate acid, isomer 1] |  | 0.05 | 48.2 | 15.2 |  | 0.007 | 0.13 | 5.79 | 68 to 74 | 95 | 97
CC1(C)CNc2c(cc(C(C)(C)C)cc2-c2cccc(N3CC(C(=O)[O-])C3)c2)O1.[Na+] [Example 187, sodium 1-[3-(7-tert-butyl-2,2-dimethyl-3,4-dihydro-1,4-benzoxazin-5-yl)phenyl]azetidine-3-carboxylate] | 80 | 0.023 | 5.19 | 2.74 | 91 | 0.005 | 1.27 | 1.36 | 205 to 213 |  | 
CC(C)c1ccc2c(c1)OC(C)(C)CN2c1cccc(N2CC(C(=O)O)C2)c1 [Example 228, 1-[3-(7-isopropyl-2,2 dimethyl-3H-1,4-benzoxazin-4-yl)phenyl]azetidine-3-carboxylic acid] | 112 | 0.147 | 15.5 | 6.97 | 111 | 0.097 | 0.29 | 2.16 | 64 to 70 |  | 
CC1(C)CN(c2cccc(N3CC(C(N)=O)C3)c2)c2ccc(C(F)(F)F)cc2O1 [Example 273, 1-[3-[2,2-dimethyl-7-(trifluoromethyl)-3H-1,4-benzoxazin-4-yl]phenyl]azetidine-3-carboxamide] | 123 | 0.012 | 0.372 | 0.584 | 110 | 0.006 | 1.81 | 0.098 | 100 |  | 
CC(C)c1cc2c(c(-c3cccc(N4CC(C(=O)[O-])C4)c3)c1)NCC1(CCC1)O2.[Na+] [Example 196, sodium 1-[3-(7-isopropylspiro[3,4-dihydro-1,4-benzoxazine-2,1′-cyclobutane]-5-yl)phenyl]azetidine-3-carboxylate] | 86 | 0.042 | 34.1 | 14.1 | 98 | 0.011 | 0.44 | 1.92 | 143 to 154 |  | 
CC(C)c1cc2c(c(-c3cccc(N4CC(C(=O)O)C4)c3)c1)NCCC(C)(C)O2 [Example 200, 1-[3-(8-isopropyl-2,2-dimethyl-4,5-dihydro-3H-1,5-benzoxazepin-6-yl)phenyl]azetidine-3-carboxylic acid] | 78 | 0.244 | 2.92 | 3.8 | 95 | 0.127 | 0.19 | 1.01 | 74 to 79 |  | 
CC1(C)C=C(c2cccc(N3CC(C(=O)[O-])C3)c2)c2ccc(C(F)(F)F)cc2O1.[Na+] [Example 263, sodium 1-[3-[2,2-dimethyl-7-(trifluoromethyl)chromen-4-yl]phenyl]azetidine-3-carboxylate] | 99 | 0.002 | 33.7 | 7.56 | 113 | 0.00081 | 0.36 | 7.66 | 172 to 195 |  | 
CCC1COc2cc(C(F)(F)F)cc(-c3cccc(N4CC(C(=O)O)C4)c3)c2N1 (stereo not drawn) [Example 186, 1-[3-[3-ethyl-7-(trifluoromethyl)-3.4-dihydro-2H-1,4-benzoxazin-5-yl]phenyl]azetidine-3-carboxylic acid] | 94 | 0.011 | 12.1 | 6.42 | 102 | 0.003 | 0.15 | 0.932 | 61 to 64 |  | 
